The source of these data is patent US11439707B2, “Hypocrellin derivative substituted both in a peri-position and in 2-position by amino, preparation method, and application thereof” (priority 2017, dated 2022).

Data set [1] is described as follows: absorption spectrum (maximum absorption wavelength, molar extinction coefficient). Type of data set: physicochemical.
The nature of data set [2]: singlet oxygen efficiency test, reference rose bengal. Type of data set: physicochemical.

Regarding `COc1c2c3c4c(c(NC(CCC(=O)O)C(=O)O)c(=O)c5c(O)cc(OC)c(c6c(OC)cc(NC(CCC(=O)O)C(=O)O)c(c1=O)c63)c54)C=C(C)C2C(C)=O` (stereo not drawn) [HB-28d], in data set [1], the maximum absorption wavelength worked out at 620 nm and the molar extinction coefficient is on record as 20,500 M^−1cm^−1. Besides, the singlet oxygen yield in data set [2] was 18%.

On to `COCCOCCC(=O)N1CCC(CNc2c(NCC3CCN(C(=O)CCOCCOC)CC3)c3c(=O)c(Br)c(OC)c4c5c(OC)cc(=O)c6c(O)c(OC)c7c(c(c2C=C(C)C7C(C)=O)c34)c65)CC1` (stereo not drawn) [HB-31a-Br-PEG1], for which, in data set [1], the maximum absorption wavelength is 624 nm and the molar extinction coefficient is given as 32,000 M^−1cm^−1. The compound also gave a singlet oxygen yield in data set [2] of 33%.

Consider `COCCOCCC(=O)N1CCC(CNc2c(NCC3CCN(C(=O)CCOCCOC)CC3)c3c(=O)cc(OC)c4c5c(OC)cc(=O)c6c(O)c(OC)c7c(c(c2C=C(C)C7C(C)=O)c34)c65)CC1` (stereo not drawn) [HB-31a-PEG1], for which, in data set [1], the maximum absorption wavelength came out at 622 nm and the molar extinction coefficient is 32,000 M^−1cm^−1. This compound had a singlet oxygen yield in data set [2] of 32%.

Consider `COCCOCCOCCOCCOCCOCCOCCC(=O)N1CCC(CNc2c(O)c3c(=O)c(Br)c(OC)c4c5c(OC)cc(=O)c6c(NCC7CCN(C(=O)CCOCCOCCOCCOCCOCCOCCOC)CC7)c(OC)c7c(c(c2C=C(C)C7C(C)=O)c34)c65)CC1` (stereo not drawn) [HB-31b-Br-PEG6], for which, in data set [1], the maximum absorption wavelength is reported as 624 nm and the molar extinction coefficient is listed as 31,500 M^−1cm^−1. In data set [2], this compound registered a singlet oxygen yield of 31%.

For `COCCOCCOCCOCCOCCOCCOCCC(=O)N1CCC(CNc2c(O)c3c(=O)cc(OC)c4c5c(OC)cc(=O)c6c(NCC7CCN(C(=O)CCOCCOCCOCCOCCOCCOCCOC)CC7)c(OC)c7c(c(c2C=C(C)C7C(C)=O)c34)c65)CC1` (stereo not drawn) [HB-31b-PEG6], in data set [1], the maximum absorption wavelength was found to be 622 nm and the molar extinction coefficient is on record as 31,000 M^−1cm^−1. In data set [2], this compound came in with a singlet oxygen yield of 38%.

With `COCCOCCOCCOCCOCCOCCOCCC(=O)N1CCC(CNc2c3c4c5c(c(OC)c(=O)c6c(O)cc(OC)c(c7c(OC)c(Br)c(NCC8CCN(C(=O)CCOCCOCCOCCOCCOCCOCCOC)CC8)c(c2=O)c47)c65)C(C(C)=O)C(C)=C3)CC1` (stereo not drawn) [HB-31c-Br-PEG6], in data set [1], the maximum absorption wavelength came to 631 nm and the molar extinction coefficient is recorded as 33,000 M^−1cm^−1. The singlet oxygen yield in data set [2] is reported as 38%.

As for `COCCOCCOCCOCCOCCOCCOCCC(=O)N1CCC(CNc2c3c4c5c(c(OC)c(=O)c6c(O)cc(OC)c(c7c(OC)cc(NCC8CCN(C(=O)CCOCCOCCOCCOCCOCCOCCOC)CC8)c(c2=O)c74)c65)C(C(C)=O)C(C)=C3)CC1` (stereo not drawn) [HB-31c-PEG6], in data set [1], the maximum absorption wavelength is listed as 632 nm and the molar extinction coefficient is 33,500 M^−1cm^−1. Moreover, the singlet oxygen yield in data set [2] was 40%.

Turning to `COCCOCCOCCOCCOCCOCCOCCOCCOCCOCCOCCOCCOCCC(=O)N1CCC(CNc2c3c4c5c(c(OC)c(=O)c6c(NCC7CCN(C(=O)CCOCCOCCOCCOCCOCCOCCOCCOCCOCCOCCOCCOCCOC)CC7)cc(OC)c(c7c(OC)c(Br)c(O)c(c2=O)c47)c65)C(C(C)=O)C(C)=C3)CC1` (stereo not drawn) [HB-31d-Br-PEG12], in data set [1], the maximum absorption wavelength came out at 632 nm and the molar extinction coefficient is 31,500 M^−1cm^−1. The compound further returned a singlet oxygen yield in data set [2] of 33%.

On to `COCCOCCN1CCC(CNc2c(NCC3CCN(CCOCCOC)CC3)c3c(=O)cc(OC)c4c5c(OC)cc(=O)c6c(O)c(OC)c7c(c(c2C=C(C)C7C(C)=O)c34)c65)CC1` (stereo not drawn) [HB-32a-PEG1], for which, in data set [1], the maximum absorption wavelength is 622 nm and the molar extinction coefficient is recorded as 32,000 M^−1cm^−1. The singlet oxygen yield in data set [2] is given as 32%.

Regarding `COCCOCCOCCOCCOCCOCCOCCN1CCC(CNc2c(O)c3c(=O)cc(OC)c4c5c(OC)cc(=O)c6c(NCC7CCN(CCOCCOCCOCCOCCOCCOCCOC)CC7)c(OC)c7c(c(c2C=C(C)C7C(C)=O)c34)c65)CC1` (stereo not drawn) [HB-32b-PEG6], in data set [1], the maximum absorption wavelength was 622 nm and the molar extinction coefficient is reported as 31,000 M^−1cm^−1. The compound also registered a singlet oxygen yield in data set [2] of 38%.

As to `COCCOCCOCCOCCOCCOCCOCCN1CCC(CNc2c3c4c5c(c(OC)c(=O)c6c(O)cc(OC)c(c7c(OC)cc(NCC8CCN(CCOCCOCCOCCOCCOCCOCCOC)CC8)c(c2=O)c74)c65)C(C(C)=O)C(C)=C3)CC1` (stereo not drawn) [HB-32c-PEG6], in data set [1], the maximum absorption wavelength is given as 632 nm and the molar extinction coefficient was 33,500 M^−1cm^−1. The compound also gave a singlet oxygen yield in data set [2] of 40%.

As for `COCCOCCOCCOCCOCCOCCOCCOCCOCCOCCOCCOCCOCCN1CCC(CNc2c3c4c5c(c(OC)c(=O)c6c(NCC7CCN(CCOCCOCCOCCOCCOCCOCCOCCOCCOCCOCCOCCOCCOC)CC7)cc(OC)c(c7c(OC)cc(O)c(c2=O)c74)c65)C(C(C)=O)C(C)=C3)CC1` (stereo not drawn) [HB-32d-PEG12], in data set [1], the maximum absorption wavelength is 632 nm and the molar extinction coefficient is on record as 31,500 M^−1cm^−1. The same compound came in with a singlet oxygen yield in data set [2] of 33%.

On to `CCCNc1c(NCCC)c2c(=O)cc(OC)c3c4c(OC)cc(=O)c5c(O)c(OC)c6c(c(c1C=C(C)C6C(C)=O)c23)c54` (stereo not drawn) [HB-33a], for which, in data set [1], the maximum absorption wavelength came to 618 nm and the molar extinction coefficient was 32,500 M^−1cm^−1. Moreover, the singlet oxygen yield in data set [2] was 30%.

On to `CCCNc1c2c3c4c(c(OC)c(=O)c5c(O)cc(OC)c(c6c(OC)cc(NCCC)c(c1=O)c63)c54)C(C(C)=O)C(C)=C2` (stereo not drawn) [HB-33c], for which, in data set [1], the maximum absorption wavelength amounted to 618 nm and the molar extinction coefficient is listed as 34,500 M^−1cm^−1. The singlet oxygen yield in data set [2] worked out at 35%.

Take `CCCNc1c2c3c4c(c(OC)c(=O)c5c(NCCC)cc(OC)c(c6c(OC)cc(O)c(c1=O)c63)c54)C(C(C)=O)C(C)=C2` (stereo not drawn) [HB-33d]: in data set [1], the maximum absorption wavelength is 620 nm and the molar extinction coefficient is on record as 32,500 M^−1cm^−1. The singlet oxygen yield in data set [2] was 32%.

Consider `COCCOCCC(=O)OCC1(Nc2c(NC3(COC(=O)CCOCCOC)CC3)c3c(=O)cc(OC)c4c5c(OC)cc(=O)c6c(O)c(OC)c7c(c(c2C=C(C)C7C(C)=O)c34)c65)CC1` (stereo not drawn) [HB-35a-PEG1], for which, in data set [1], the maximum absorption wavelength is 624 nm and the molar extinction coefficient is on record as 31,500 M^−1cm^−1. This compound returned a singlet oxygen yield in data set [2] of 34%.

As to `COc1c(O)c2c(=O)cc(OC)c3c4c(OC)cc(=O)c5c(NC6(CO)CC6)c(NC6(CO)CC6)c6c(c(c1C(C(C)=O)C(C)=C6)c23)c54` (stereo not drawn) [HB-35a], in data set [1], the maximum absorption wavelength was found to be 621 nm and the molar extinction coefficient is on record as 30,500 M^−1cm^−1. In addition, the singlet oxygen yield in data set [2] is reported as 32%.

For `COCCOCCOCCOCCOCCOCCOCCC(=O)OCC1(Nc2c(O)c3c(=O)cc(OC)c4c5c(OC)cc(=O)c6c(NC7(COC(=O)CCOCCOCCOCCOCCOCCOCCOC)CC7)c(OC)c7c(c(c2C=C(C)C7C(C)=O)c34)c65)CC1` (stereo not drawn) [HB-35b-PEG6], in data set [1], the maximum absorption wavelength was found to be 624 nm and the molar extinction coefficient is recorded as 30,500 M^−1cm^−1. Moreover, the singlet oxygen yield in data set [2] is 32%.

With `COc1c(NC2(CO)CC2)c2c(=O)cc(OC)c3c4c(OC)cc(=O)c5c(O)c(NC6(CO)CC6)c6c(c(c1C(C(C)=O)C(C)=C6)c23)c54` (stereo not drawn) [HB-35b], in data set [1], the maximum absorption wavelength amounted to 620 nm and the molar extinction coefficient was 31,500 M^−1cm^−1. In data set [2], this compound yielded a singlet oxygen yield of 30%.
